Test system: spontaneous SWDs
Test: Spontaneous spike-wave discharges (SWDs) in Long-Evans rats
Assay type: in vivo
Details: 0.5 ml, 28 mg/kg, i.p.; vs saline; n=8
Protocol: All rats were kept in a sound-attenuated room under a 12:12 hour light-dark cycle (07:00-19:00 lights on) with food and water provided ad libitum. The experimental procedures were reviewed and approved by the Institutional Animal Care and Use Committee. Briefly, the recording electrodes were implanted under pentobarbital anesthesia (60 mg/kg, i.p.). Subsequently, the rat was placed in a standard stereotaxic apparatus. In total, six stainless steel screws were driven bilaterally into the skull overlying the frontal (A +2.0, L 2.0 with reference to the bregma) and occipital (A −6.0, L 2.0) regions of the cortex to record cortical field potentials. A ground electrode was implanted 2 mm caudal to lambda. Dental cement was applied to fasten the connection socket to the surface of the skull. Following suturing to complete the surgery, animals were given an antibiotic (chlortetracycline) and housed individually in cages for recovery. […] In this preliminary animal test, we compared effect among saline, ethosuximide (ESM), ESM-loaded nanoparticles (ESM-Fe3O4@SiO2) and ESM-containing chip (ESM-Chip) in spontaneous SWDs of Long-Evans rats. […] In this experiment, we recorded 1-hour spontaneous brain activity before the treatment (baseline) and another 1-hour spontaneous brain activity 30 minutes after the treatment. […]

## CCC1(C)CC(=O)NC1=O (centres unmarked) [ESM, ethosuximide]
  SWD number: significantly decreased
  total SWD duration: significantly decreased

Source: US20110094885A1, “Flexible Drug Delivery Chip, its Fabrication Method and Uses Thereof” (NATIONAL CHIAO TUNG UNIVERSITY, priority 2009, published 2011)
